Assay type in all cases: cell-based
In experiment [1] the test system is NBT-II cells. Kind of experiment: EMT spot migration assay, EGF induced EMT. Particulars: for IC50: EMT induced by EGF (20 ng/mL), NBT-II cells, read-out: Cell Dispersion IC50 (nM) EGF. How it is done: (§1) Stably transfected mcherry fluorescence-labeled NET-II cells are maintained in DMEM supplemented with 10% fetal bovine serum (FBS, Thermo Scientific), 1 μg/mL puromycin (Sigma), 100 units/mL penicillin−100 units/mL streptomycin (1×pen-strep, Invitrogen) and 2 mM L-glutamine (Invitrogen).
(§2) Test compounds were purchased from various vendors (Selleck Chemicals, Sigma Aldrich, SYN|thesis Med Chem, and Tocris Bioscience). For screening studies, test compounds at both 0.25 mM and 1.0 mM concentrations in DMSO are prepared, each occupying a single well in columns 2 to 11 of 96-well V-bottom plates (Greiner). For dose response studies, selected test compounds were prepared in duplicate wells and serial diluted in DMSO, starting a 1.0 mM concentration. Compound stock plates were stored at −20° C. and thawed at room temperature before use.
(§3) A schematic for the spot migration assay is illustrated in FIG. 2. Cells were grown up to 80% confluency in tissue culture flasks prior to cell plating. Cells were first trypsinized, concentrated and re-suspended to a density of 5×10^6 cell/mL in CO2 independent medium (Invitrogen) supplemented with 10% FBS. The cell suspension was then evenly aliquoted into the wells of 2 columns of a 96-well V-bottom plate. Using a robotic liquid handling station (Bravo, Agilent Technologies), 0.5 μL of cell suspension was transferred from the 2 columns of the cell suspension-loaded plate and deposited into the center of the wells of 2 columns of a 96-well clear bottom, black assay plate (Corning). This process was repeated six times so that all 96 wells of the assay plate were deposited with a cell suspension spot. The plate was then sealed to minimize evaporation of the cell suspension spots and transferred to a 37° C., 5% CO2 incubator to allow for cells to attach to the culture surface. After one hour, the plate was gently washed with medium once to remove unattached cells, refreshed with 100 μL assay medium (DMEM supplemented with 10% FBS, 1× pen-strep and 2 mM L-glutamine), and then further incubated to allow for cell-cell contacts to establish in the cell colonies.
Four tiled, non-overlapping images were acquired around the center of each well, which were then stitched together during image analysis to generate a montage covering an area of 3.2 mm×3.2 mm. These images (T1) represent the initial state of the cell colonies before EMT induction.
After the T1 images are acquired, 1 μL of test compounds were transferred from compound stock plates and added to the assay plates. […] The cultures were then further incubated overnight.
The next day, 50 μL of growth factor containing medium was added each well of the assay plates. For each of the EGF, HGF or IGF-1 induced EMT spot migration assays, the final growth factor concentrations was adjusted in each well to be 20 ng/mL EGF (Sigma), 4 ng/mL HGF (Calbiochem) or 150 ng/mL IGF-1 (R&D Systems), respectively. The cultures were then incubated for another 24 hours, to allow for EMT and sufficient cell motility/dispersion to occur in the cell colonies.
Finally, the cell colonies were imaged again using the confocal microplate imager as described above. These images (T2) represent the final state of the cell colonies after compound treatment and EMT induction. The acquired T1 and T2 image sets for each assay plate were then subjected to image analysis.
Acquired image sets were loaded into image analysis routine developed using Metamorph software. Briefly, a complete image of the entire cell colony in a well was first obtained by stitching the four tiled, non-overlapping images together. Image analysis consists of counting the cell number and measuring the area occupied by the cells. The positive nuclei were segmented using a wavelet decomposition scheme to remove the photonic noise and the inhomogeneous background. A watershed procedure was used to refine the result by separating the confluent nuclei.

The subject of experiment [2] is NBT-II cells. Put plainly: EMT spot migration assay, HGF induced EMT. As to conditions: EMT induced by HGF (4 ng/mL), read-out: Cell Dispersion IC50 (nM) HGF. On the procedure: as §1, §2, §3
After 4 hours of incubation, the cell colonies for each well were imaged using a confocal microplate imager (MetaXpress Ultra, Molecular Devices) with 10× Plan Fluor objective, 561 nm laser excitation and 593/40 nm emission filter configuration. Four tiled, non-overlapping images were acquired around the center of each well, which were then stitched together during image analysis to generate a montage covering an area of 3.2 mm×3.2 mm. These images (T1) represent the initial state of the cell colonies before EMT induction.
After the T1 images are acquired, 1 μL of test compounds were transferred from compound stock plates and added to the assay plates. […]

Experiment [3] has as its system NBT-II cells. Put plainly: EMT spot migration assay, IGF-1 induced EMT. As to conditions: EMT induced by IGF-1 (150 ng/mL), read-out: Cell Dispersion IC50 (nM) IGF-1. How it is done:
as §1, §2
as §3, with “After one hour, the plate was gently washed with medium once to remove unattached cells, refreshed with 100 μL assay medium (DMEM supplemented with 10% FBS, 1× pen-strep and 2 mM L-glutamine), and then further incubated to allow for cell-cell contacts to establish in the cell colonies.” left out

Another experiment has as its system SKOV3 cells. Kind of experiment: EMT reversal assay (morphology, Western blot) in SKOV3. As to conditions: SKOV3, 2 μM for 3 days. How it is done:
(§4) SKOV3, HEY and OVCAR-2 cells were maintained in RPMI (Invitrogen) supplemented with 10% fetal bovine serum (FBS, Thermo Scientific), 1 μg/mL puromycin (Sigma), 100 units/mL penicillin−100 units/mL streptomycin (1× pen-strep, Invitrogen) and 2 mM L-glutamine (Invitrogen). AZD0530 and BIBF-1120 were purchased from Selleck Chemicals and SYN|thesis Med Chem respectively. DMSO was used as a vehicle to dissolve both compounds. A stock concentration of 10 mM was prepared for both compounds and stored at −20° C. and aliquots were thawed at room temperature before use. Cells were grown up to 80% confluency in tissue culture flasks prior to cell plating. Cells were first trypsinized, concentrated and re-suspended to a density of 1×10^6 cell/mL in RPMI supplemented with 10% FBS. For each cell lines, 1×10^5 cells were plated onto 100 mm cell culture treated dishes (Nunc) for each condition. The cells were then allowed to attach to the culture dish surface and grow overnight in 37° C., 5% CO2 incubator. In drug conditions, the cells were then incubated with each of the compounds at a final concentration of 2 μM for 3 days to allow cell-cell contacts to establish in the dispersed culture. The medium was aspirated from the culture dishes and the cells were washed with PBS Ca^2+, Mg^2+ before they were snap-frozen with liquid nitrogen. Cells were lysed with RIPA buffer (Sigma) supplemented with protease inhibitor cocktail (Calbiochem) and phosphatase inhibitor cocktail (Roche). Protein concentration was measured using BCA (Pierce) protocol provided by the manufacturer. 8% polyacrylamide gels were used for the separation of proteins and transferred to PDVF membranes (Millipore). Membranes were blocked in 5% non-fat milk (Bio-rad) and incubated at 4 degree Celsius overnight with primary antibodies. E-cadherin antibody was purchased from BD laboratories, MMP13 antibody was purchased from Millipore and Tubulin was purchased from Sigma. […] The raw intensity of the protein bands were quantified using GeneTools software (Syngene).

A further experiment deals with HEY cells. Kind of experiment: EMT reversal assay (morphology, Western blot) in HEY. As to conditions: 2 μM for 3 days. How it is done:
as §4
(In general: Immunoblotting shows a protein as a band on a membrane.)

Another experiment relates to OVCAR-2 cells. Kind of experiment: EMT reversal assay (morphology, Western blot) in OVCAR-2. As to conditions: OVCAR-2, 2 μM for 3 days. How it is done: as §4

A word on the IC50: it is the concentration needed to halve the response being measured.

Take `COc1cc2ncnc(Nc3cccc(Cl)c3)c2cc1OC` [AG 1478]: the IC50 in the experiment on NBT-II cells [1] turned out to be 350 nM. Further, the “Cell Dispersion ratio” value with NBT-II cells [1] (PosCtrl condition: [AG1478]=6.67 microM and [EGF]=20 ng/mL, NegCtrl 2.50±0.12) came to 1.48±0.05.

For `S=C(NCc1ccc2c(c1)OCO2)N1CCN(c2ncnc3c2oc2ccccc23)CC1` [MP-470], the results for the IC50 with NBT-II cells [1], in the experiment with NBT-II cells [2] and in the experiment with NBT-II cells [3] were 510 nM, 970 nM and 580 nM, respectively.

As to `Cc1ccc(-c2nn(C(C)(C)C)c3ncnc(N)c23)cc1` [PP 1], the IC50 with NBT-II cells [1] worked out at 1720 nM.

For the molecule `Cn1cc(-c2ccc3nnc(C(F)(F)c4ccc5ncccc5c4)n3n2)cn1` [JNJ.38877605], the IC50 with NBT-II cells [2] amounted to 43 nM.

As to `CN1CCN(CCOc2cc(OC3CCOCC3)c3c(Nc4c(Cl)ccc5c4OCO5)ncnc3c2)CC1` [AZD 0530], the values for the IC50 with NBT-II cells [1] and with NBT-II cells [2] were 565 nM and 650 nM, respectively. The Morphology after treatment result was “restored the epithelioid-like morphology” with SKOV3 cells (vs DMSO), “restored the epithelioid-like morphology” in the experiment with HEY cells (vs DMSO) and “formed tighter cobblestone-like cell colonies” in the experiment on OVCAR-2 cells (vs DMSO). Also, the “E-cadherin protein levels (Western blot)” value with SKOV3 cells (vs vehicle) was “greater increase”; in the experiment on HEY cells (vs vehicle), “greater increase”; with OVCAR-2 cells (vs vehicle), “increased”. Further, the entries for the “MMP13 protein levels (Western blot)” value in the experiment on SKOV3 cells (vs vehicle), in the experiment on HEY cells (vs vehicle) and with OVCAR-2 cells (vs vehicle) were “greater reduction”, “greater reduction” and “reduced”, respectively.

Consider `CS(=O)(=O)N1CCN(Cc2cc3nc(-c4cccc5[nH]ncc45)nc(N4CCOCC4)c3s2)CC1` [GDC-0941], for which, in the experiment with NBT-II cells [3], the IC50 was 490 nM.

For the molecule `Cc1cc(N2CCOCC2)cc2[nH]c(-c3c(NC[C@@H](O)c4cccc(Cl)c4)cc[nH]c3=O)nc12` [BMS 536924], in the experiment on NBT-II cells [1], the IC50 stood at 6600 nM.

As to `COc1cc2ncnc(Nc3ccc(O)c(Br)c3)c2cc1OC` [WHI-P 154], the IC50 in the experiment with NBT-II cells [1] was 590 nM.

In the case of `Cn1cnc2c(F)c(Nc3ccc(Br)cc3Cl)c(C(=O)NOCCO)cc21` [AZD 6244], the figures for the IC50 in the experiment with NBT-II cells [2] and in the experiment with NBT-II cells [3] were 471 nM and 534 nM, respectively.

The values above are taken from US9953129B2, “Patient stratification and determining clinical outcome for cancer patients” (Agency for Science, Technology and Research, priority 2011, dated 2018).
